The values below come from patent publication US7323598B2, “Preparation of xylylenediamine (XDA)” (BASF Aktiengesellschaft, priority 2003, dated 2008).

The data set is described as follows: Investigations of solubility of IPN in different solvents. The data set is classed as physicochemical. The settings on record: for solubility of IPN in NMP: solvent NMP; for solubility of IPN in mesitylene: solvent mesitylene; for solubility of IPN in pseudocumene: solvent pseudocumene. On the procedure: Investigations of Solubility of IPN in Different Solvents
At 60° C., the solubility of IPN in mesitylene or pseudocumene is in each case below 10% by weight.

As for `N#Cc1cccc(C#N)c1` [IPN, 1,3-dicyanobenzene], for the setting “60° C.”, the “solubility of IPN in NMP” value is reported as “approx. 26 % by weight”, the “solubility of IPN in mesitylene” value is “below 10 % by weight” and the “solubility of IPN in pseudocumene” value is “below 10 % by weight”. Also, for the setting “90° C.”, the “solubility of IPN in NMP” value is given as “approx. 41 % by weight”, the “solubility of IPN in mesitylene” value is 12 % by weight and the “solubility of IPN in pseudocumene” value is given as 20 % by weight.
